Experimental findings from patent publication US11236087B2, “Highly active pyrazolo-piperidine substituted indole-2-carboxamides active against the hepatitis B virus (HBV)” (AiCuris GmbH & Co. KG, priority 2017, dated 2022) are described below.

SMILES strings stand for the structures.

The subject of data set [1] is HBV. In words: Determination of HBV DNA from the supernatants of HepAD38 cells (anti-HBV activity). The data set is classed as cell-based, hepatitis B virus. The settings on record: Hepatitis B virus, 144 h; HBV DNA in HepAD38 supernatant, day 6, qPCR; read-out: Cell Activity (EC50). Summed up: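 HepAD38 cells, tetracycline withdrawn to induce HBV, treated with serial half-log compound dilutions; on day 6 HBV DNA purified from filtered supernatant and quantified by real-time PCR against HBV plasmid standards; EC50 from relative copy numbers by non-linear regression, three experiments in triplicate.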

The target of data set [2] is T1, HBV core protein (UniProt P03146).
T1 construct: fused on or other part: BODIPY-FL maleimide label on the C-terminal Cys150
In words: Biochemical capsid assembly assay (fluorescence quenching). Set-up: species or system hepatitis B virus. To be noted: read-out: Assembly Activity (IC50); BODIPY-FL labelled core protein, 300 μM NaCl, read 6 min after start. The procedure: Biochemical Capsid Assembly Assay
The screening for assembly effector activity was done based on a fluorescence quenching assay published by Zlotnick et al. (2007). The C-terminal truncated core protein containing 149 amino acids of the N-terminal assembly domain fused to a unique cysteine residue at position 150 and was expressed in E. coli using the pET expression system (Merck Chemicals, Darmstadt). Purification of core dimer protein was performed using a sequence of size exclusion chromatography steps. In brief, the cell pellet from 1 L BL21 (DE3) Rosetta2 culture expressing the coding sequence of core protein cloned NdeI/XhoI into expression plasmid pET21b was treated for 1 h on ice with a native lysis buffer (Qproteome Bacterial Protein Prep Kit; Qiagen, Hilden). After a centrifugation step the supernatant was precipitated during 2 h stirring on ice with 0.23 g/ml of solid ammonium sulfate. Following further centrifugation the resulting pellet was resolved in buffer A (100 mM Tris, pH 7.5; 100 mM NaCl; 2 mM DTT) and was subsequently loaded onto a buffer A equilibrated CaptoCore 700 column (GE HealthCare, Frankfurt). The column flow through containing the assembled HBV capsid was dialyzed against buffer N (50 mM NaHCO3 pH 9.6; 5 mM DTT) before urea was added to a final concentration of 3M to dissociate the capsid into core dimers for 1.5 h on ice. The protein solution was then loaded onto a 1 L Sephacryl S300 column. After elution with buffer N core dimer containing fractions were identified by SDS-PAGE and subsequently pooled and dialyzed against 50 mM HEPES pH 7.5; […]. To improve the assembly capacity of the purified core dimers a second round of assembly and disassembly starting with the addition of 5 M NaCl and including the size exclusion chromatography steps described above was performed. From the last chromatography step core dimer containing fractions were pooled and stored in aliquots at concentrations between 1.5 to 2.0 mg/ml at −80° C.
Immediately before labelling the core protein was reduced by adding freshly prepared DTT in a final concentration of 20 mM. After 40 min incubation on ice storage buffer and DTT was removed using a Sephadex G-25 column (GE HealthCare, Frankfurt) and 50 mM HEPES, pH 7.5. For labelling 1.6 mg/ml core protein was incubated at 4° C. and darkness overnight with BODIPY-FL maleimide (Invitrogen, Karlsruhe) in a final concentration of 1 mM. After labelling the free dye was removed by an additional desalting step using a Sephadex G-25 column. Labelled core dimers were stored in aliquots at 4° C. In the dimeric state the fluorescence signal of the labelled core protein is high and is quenched during the assembly of the core dimers to high molecular capsid structures. The screening assay was performed in black 384 well microtiter plates in a total assay volume of 10 μl using 50 mM HEPES pH 7.5 and 1.0 to 2.0 μM labelled core protein. Each screening compound was added in 8 different concentrations using a 0.5 log-unit serial dilution starting at a final concentration of 100 μM, 31.6 μM or 10 μM, In any case the DMSO concentration over the entire microtiter plate was 0.5%. The assembly reaction was started by the injection of NaCl to a final concentration of […] which induces the assembly process to approximately 25% of the maximal quenched signal. 6 min after starting the reaction the fluorescence signal was measured using a Clariostar plate reader (BMG Labtech, Ortenberg) with an excitation of 477 nm and an emission of 525 nm. As 100% and 0% assembly control HEPES buffer containing 2.5 M and 0 M NaCl was used. Experiments were performed thrice in triplicates. EC50 values were calculated by non-linear regression analysis using the Graph Pad Prism 6 software (GraphPad Software, La Jolla, USA).

The nature of data set [3]: Cell viability assay (AlamarBlue) in HepAD38 cells. To be noted: human.

T1 sequence (P03146 whole entry, looked up, the tested form may be a part): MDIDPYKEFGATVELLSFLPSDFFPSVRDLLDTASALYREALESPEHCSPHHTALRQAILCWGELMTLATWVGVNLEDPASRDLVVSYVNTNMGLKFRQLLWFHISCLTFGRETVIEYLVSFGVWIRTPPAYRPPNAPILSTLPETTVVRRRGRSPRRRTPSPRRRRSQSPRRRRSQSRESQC

For `CCOCC1(N(C)C(=O)c2n[nH]c3c2CN(C(=O)c2cc4ccccc4[nH]2)CC3)CC1` [Example 207, N-[1-(ethoxymethyl)cyclopropyl]-5-(1H-indole-2-carbonyl)-N-methyl-1H,4H,5H,6H,7H-pyrazolo[4,3-c]pyridine-3-carboxamide], in data set [1], the EC50 was below 1 µM. Besides, in data set [2], the IC50 was below 5 µM. The CC50 at 6 days in data set [3] was above 10 µM.
Regarding `CN(CC(C)(C)O)C(=O)c1n[nH]c2c1CN(C(=O)c1cc3ccccc3[nH]1)CC2` [Example 43, N-(2-hydroxy-2-methylpropyl)-5-(1H-indole-2-carbonyl)-N-methyl-1H,4H,5H,6H,7H-pyrazolo[4,3-c]pyridine-3-carboxamide], the EC50 in data set [1] was below 1 µM. In addition, the IC50 in data set [2] lay in the range of 5 to 10 µM. In data set [3], this compound gave a CC50 at 6 days above 32 µM.
For `CCOCC1(N(C)C(=O)c2[nH]nc3c2CN(C(=O)c2cc4c(F)cc(F)cc4[nH]2)CC3)CC1` [Example 363, 5-(4,6-difluoro-1H-indole-2-carbonyl)-N-[1-(ethoxymethyl)cyclopropyl]-N-methyl-2H,4H,5H,6H,7H-pyrazolo[4,3-c]pyridine-3-carboxamide], the EC50 in data set [1] is below 1 µM. Further, the half-inhibitory concentration (IC50) in data set [2] was below 5 µM. This compound displayed a CC50 at 6 days in data set [3] above 10 µM.
Take `CN(C(=O)c1n[nH]c2c1CN(C(=O)c1cc3ccccc3[nH]1)CC2)C1CCCOC1` (stereo not drawn) [Example 193, 5-(1H-indole-2-carbonyl)-N-methyl-N-(oxan-3-yl)-1H,4H,5H,6H,7H-pyrazolo[4,3-c]pyridine-3-carboxamide]: the EC50 in data set [1] is 1 to 25 µM. The half-inhibitory concentration (IC50) in data set [2] was below 100 µM. Further, the 50% cytotoxic concentration (CC50) at 6 days in data set [3] is above 10 µM.
Take `O=C(c1cc2cc(Cl)ccc2[nH]1)N1CCc2[nH]ncc2C1` [Example 122, 5-chloro-2-{1H,4H,5H,6H,7H-pyrazolo[4,3-c]pyridine-5-carbonyl}-1H-indole]: the EC50 in data set [1] was 1 to 25 µM. In addition, the IC50 in data set [2] is below 100 µM. In addition, the CC50 at 6 days in data set [3] is above 100 µM.
On the same counts, the results for `[2H]C([2H])([2H])N(C(=O)c1n[nH]c2c1CN(C(=O)c1cc3ccccc3[nH]1)CC2)C1(COC)CC1` [Example 201, 5-(1H-indole-2-carbonyl)-N-[1-(methoxymethyl)cyclopropyl]-N-(2H3)methyl-1H,4H,5H,6H,7H-pyrazolo[4,3-c]pyridine-3-carboxamide] are below 1 µM, below 5 µM and above 10 µM.
On the same counts, the results for `CCOCC1(N(C)C(=O)c2[nH]nc3c2CN(C(=O)c2cc4c(Cl)c(F)ccc4[nH]2)CC3)CC1` [Example 364, 5-(4-chloro-5-fluoro-1H-indole-2-carbonyl)-N-[1-(ethoxymethyl)cyclopropyl]-N-methyl-2H,4H,5H,6H,7H-pyrazolo[4,3-c]pyridine-3-carboxamide] are below 1 µM, below 5 µM and above 10 µM.
On the same counts, the results for `CN(c1n[nH]c2c1CN(C(=O)c1cc3ccccc3[nH]1)CC2)S(C)(=O)=O` [Example 74, N-[5-(1H-indole-2-carbonyl)-1H,4H,5H,6H,7H-pyrazolo[4,3-c]pyridin-3-yl]-N-methylmethanesulfonamide] are 1 to 25 µM, below 100 µM and above 100 µM.
As to `CN(CCO)C(=O)c1n[nH]c2c1CN(C(=O)c1cc3c(Br)cccc3[nH]1)CC2` [Example 30, 5-(4-bromo-1H-indole-2-carbonyl)-N-(2-hydroxyethyl)-N-methyl-1H,4H,5H,6H,7H-pyrazolo[4,3-c]pyridine-3-carboxamide], in data set [1], the EC50 was below 1 µM. The IC50 in data set [2] was below 5 µM. Also, in data set [3], the CC50 at 6 days is above 10 µM.
Regarding `O=C(c1cc2ccccc2[nH]1)N1CCc2[nH]nc(-c3cscn3)c2C1` [Example 47, 2-[3-(1,3-thiazol-4-yl)-1H,4H,5H,6H,7H-pyrazolo[4,3-c]pyridine-5-carbonyl]-1H-indole], in data set [1], the EC50 was below 1 µM. Further, the IC50 in data set [2] is below 5 µM. In data set [3], this compound returned a CC50 at 6 days above 100 µM.
In the same order, the values of `CN(C(=O)c1n[nH]c2c1CN(C(=O)c1cc3ccccc3[nH]1)CC2)C1(c2ccccn2)CC1` [Example 311, 5-(1H-indole-2-carbonyl)-N-methyl-N-[1-(pyridin-2-yl)cyclopropyl]-1H,4H,5H,6H,7H-pyrazolo[4,3-c]pyridine-3-carboxamide] are below 1 µM, below 5 µM and above 10 µM.
On to `CCc1cc(F)cc2[nH]c(C(=O)N3CCc4[nH]nc(C(=O)N(C)C5(COC)CC5)c4C3)cc12` [Example 272, 5-(4-ethyl-6-fluoro-1H-indole-2-carbonyl)-N-[1-(methoxymethyl)cyclopropyl]-N-methyl-1H,4H,5H,6H,7H-pyrazolo[4,3-c]pyridine-3-carboxamide], for which the EC50 in data set [1] was below 1 µM. In addition, in data set [2], the IC50 is below 5 µM. In data set [3], the CC50 at 6 days is above 10 µM.
In the same order, the values of `CC(C)[C@H](N)C(=O)OCCN(C)C(=O)c1n[nH]c2c1CN(C(=O)c1cc3ccccc3[nH]1)CC2` [Example 48, 2-{1-[5-(1H-indole-2-carbonyl)-1H,4H,5H,6H,7H-pyrazolo[4,3-c]pyridin-3-yl]-N-methylformamido}ethyl (2S)-2-amino-3-methylbutanoate] are below 1 µM, below 5 µM and above 32 µM.
In the case of `CCc1cc(F)cc2[nH]c(C(=O)N3CCc4[nH]nc(C(=O)N(C)C5(CO)CC5)c4C3)cc12` [Example 271, 5-(4-ethyl-6-fluoro-1H-indole-2-carbonyl)-N-[1-(hydroxymethyl)cyclopropyl]-N-methyl-1H,4H,5H,6H,7H-pyrazolo[4,3-c]pyridine-3-carboxamide], in data set [1], the EC50 is below 1 µM. Besides, in data set [2], the IC50 was below 5 µM. The compound further returned a CC50 at 6 days in data set [3] above 10 µM.
Turning to `CC1c2c(-c3cscn3)n[nH]c2CCN1C(=O)c1cc2ccccc2[nH]1` (stereo not drawn) [Example 36, 2-[4-methyl-3-(1,3-thiazol-4-yl)-1H,4H,5H,6H,7H-pyrazolo[4,3-c]pyridine-5-carbonyl]-1H-indole], the EC50 in data set [1] is below 1 µM. Moreover, in data set [2], the IC50 lay within 5 to 10 µM. This compound also showed a CC50 at 6 days in data set [3] of 88 µM.
In the case of `O=C(c1cc2ccccc2[nH]1)N1CCc2[nH]nc(C(=O)N3CCCO3)c2C1` [Example 133, 2-[3-(1,2-oxazolidine-2-carbonyl)-1H,4H,5H,6H,7H-pyrazolo[4,3-c]pyridine-5-carbonyl]-1H-indole], the EC50 in data set [1] was below 100 µM. In data set [2], the IC50 is below 5 µM. Further, the CC50 at 6 days in data set [3] was above 100 µM.
On the same counts, the results for `CON(C)C(=O)c1n[nH]c2c1CN(C(=O)c1cc3c(C(F)(F)F)cccc3[nH]1)CC2` [Example 129, N-methoxy-N-methyl-5-[4-(trifluoromethyl)-1H-indole-2-carbonyl]-1H,4H,5H,6H,7H-pyrazolo[4,3-c]pyridine-3-carboxamide] are below 1 µM, below 5 µM and above 32 µM.
Take `CN(CCO)C(=O)c1n[nH]c2c1CN(C(=O)c1cc3c(F)cc(F)cc3[nH]1)CC2` [Example 28, 5-(4,6-difluoro-1H-indole-2-carbonyl)-N-(2-hydroxyethyl)-N-methyl-1H,4H,5H,6H,7H-pyrazolo[4,3-c]pyridine-3-carboxamide]: the EC50 in data set [1] was below 1 µM. Besides, the IC50 in data set [2] is below 5 µM. This compound also came in with a CC50 at 6 days in data set [3] above 10 µM.
